In patent publication US20150073154A1, “Discrete PEG Based Dyes” (EquIP, LLC, priority 2013, published 2015):
Several values for one entry are separate records, joined by “and”; a condition that tells them apart may be missing. Equal entries are not always repeated. Where two headings read alike, the source gives them in different places.

How the values were obtained:
[1] = 10% DMSO (lit); cited from earlier work
[2] = Solubility of ICG-NHS (no dPEG); format: physicochemical; settings: 10% DMAC (our work)
Text: Soluble in 10% DMSO (lit) or DMAC (our work)

[3] = Behaviour of unreacted reagent on spin columns in PBS (aggregation); format: physicochemical; settings: no MAG control
Text: Reacted with MAG but couldn't separate unreacted reagent on spin columns in PBS

[4] = target: Human Serum Albumin (HSA) (Homo sapiens, UniProt P02768); test: Fluorescence increase on addition to 4% HSA solution (HSA complex formation); format: binding
Sequence of Human Serum Albumin (HSA) (P02768 25-609): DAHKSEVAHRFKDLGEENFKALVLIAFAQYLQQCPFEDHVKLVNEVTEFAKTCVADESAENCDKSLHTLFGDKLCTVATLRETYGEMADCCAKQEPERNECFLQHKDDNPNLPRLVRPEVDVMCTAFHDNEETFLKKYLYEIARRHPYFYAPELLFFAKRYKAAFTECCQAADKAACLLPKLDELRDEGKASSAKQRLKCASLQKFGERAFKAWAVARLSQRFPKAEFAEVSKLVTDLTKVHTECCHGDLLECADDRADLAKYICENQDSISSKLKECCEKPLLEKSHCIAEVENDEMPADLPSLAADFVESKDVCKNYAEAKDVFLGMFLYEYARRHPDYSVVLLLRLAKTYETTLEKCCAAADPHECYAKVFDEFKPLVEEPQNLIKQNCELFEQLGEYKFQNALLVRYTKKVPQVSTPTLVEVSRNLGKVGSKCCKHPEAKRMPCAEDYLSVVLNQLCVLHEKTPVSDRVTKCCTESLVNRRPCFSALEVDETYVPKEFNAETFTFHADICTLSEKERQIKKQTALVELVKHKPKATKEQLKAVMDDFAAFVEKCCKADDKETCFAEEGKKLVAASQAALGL
Description: ICG is a hydrophobic molecule that forms a tight complex with Human Serum Albumin (HSA). The fluorescence of ICG increased ˜10 fold, as expected, when it was added to a 4% HSA solution. When ICG is conjugated to a protein, it loses its ability to form tight HAS complexes, as confirmed in our experiments where the fluorescence of ICG-IgG (no dPEG) increased by only a factor of ˜2 when added to 4% HSA. We hypothesized that ICG might still be able to bind to HSA when it was bound to IgG through a dPEG12 linker.

[5] = Conjugation of ICG reagents with IgG: maximal ICG incorporation without losing the protein; format: physicochemical; settings: reaction with MAG in 10% DMAC
Text: The maximal number of ICGs using this reagent that can be incorporated into an IgG without losing the protein is 4-5 ICG/IgG (FIG. 18). A similar number of ICGs from ICG-NHS, the reagent without dPEG, can be substituted into IgG (FIG. 19).
c. Conjugation of ICG-dPEG12-NHS with MAG (Mouse Anti-Goat IgG Antibody)
MAG reacted with different concentrations of ICG-dPEG12-NHS in 10% DMAC
Product purified over two G50 spin columns in PBS
[IgG] and ICG/IgG molar ratios determined from A (770 nm) and A (280) nm
Lose most of protein when [ICG-dPEG12-NHS] in the reaction is ≧0.2 mM
Highest incorporation: ICG/IgG˜5

CC1(C)C(/C=C/C=C/C=C/C=C2\N(CCCCS(=O)(=O)[O-])c3ccc4ccccc4c3C2(C)C)=[N+](CCCCCC(=O)ON2C(=O)CCC2=O)c2ccc3ccccc3c21 [ICG-NHS]
solubility [1]: Soluble | solubility [2]: Soluble | aggregation of unreacted reagent [3]: apparently forms aggregates

CC1(C)C(/C=C/C=C/C=C/C=C2\N(CCCCS(=O)(=O)[O-])c3ccc4ccccc4c3C2(C)C)=[N+](CCCCS(=O)(=O)[O-])c2ccc3ccccc3c21.[Na+] [ICG]
increase of fluorescence when added to 4% HSA [4]: ~10 fold

dPEG12-NHS ester)-1,1-dimethyl-benzoindoliden-hepta-1,3,5-trienyl-(1,1-dimethyl-benzoindolium butane sulfonate) [ICG-dPEG12-NHS]
maximal number of ICGs that can be incorporated into an IgG without losing the protein / highest incorporation [5]: 4-5 ICG/IgG and ~5 ICG/IgG
